US20080085273A1, “VEHICLE FOR THE TRANSPORT OF A CHOSEN MOLECULE TO A CELL” (Synvolux IP B.V., priority 2004, published 2008)

Tested on: Human Embryonic Kidney cells, strain 293A
Assay: Transfection of Human Embryonic Kidney cells with CMV-GFP plasmid complexed with SAINT-molecules, GFP expression by FACS
Format: cell-based
Details: 293A cells, 12 well plates; 500 ng CMV-GFP plasmid complexed with 3.75 nm SAINT molecules or linker per well; FACS 48 hours after transfection
Excerpt: FIG. 1 is the result of Human Embryonic Kidney cells, strain 293A, cultured in 12 well plates and are transfected with 4 combinations of SAINT-molecules (i.e. SAINT-18, SAINT-18 coupled to RGD, a mixture of SAINT-18 and SAINT-18 coupled to RGD, and SAINT-18 linker).
Human Embryonic Kidney cells are difficult to be transfected. When using these cells, main competing transfection methods (of other manufacturers), require several micrograms of plasmid DNA for successful transfection. Combined with SAINT-18, 1 μg (per 12 wells) normally results in a transfection rate above 90%. To be able to visualize the enhancing effect of the targeting moiety SAINT-18-RGD, in this protocol we used a low amount of plasmid DNA (500 ng per 12 wells). The structural formula of SAINT-linker-RGD is depicted in […]. In addition, an RGD-peptide is coupled to the SATA-group of the SAINT-Linker, as described in the present invention. The RGD group is a targeting moiety for the integrin receptor family and is though to increase the transfection efficacy. Human Embryonic Kidney cells, strain 293A, are cultured in 12 well plates and are transfected with 4 combinations of Saint-molecules (i.e. SAINT-18, SAINT-18 coupled to RGD, a mixture of SAINT-18 and SAINT-18 coupled to RGD, and only a linker molecule as a reference). […] 48 hours after transfection GFP expression is measured by FACS analysis. […]

## CCCCCCCC/C=C\CCCCCCCCC(CCCCNC(=O)C1CCC(CN2C(=O)CC(SCC(=O)NC(=N)NCCCC(C)C(=O)NCC(=O)NC(CC(=O)O)C(=O)O)C2=O)CC1)c1cc[n+](C)cc1.[Cl-] (stereo not shown) [S18/RGD]
  transfection ability (percentage of GFP positive cells, FIG. 1, result in words): able to transfect cells
